Data from patent publication US12059422B2 (MEI Pharma, Inc., priority 2011, dated 2024).

Columns and labels:
[1] = biological target: T1, PI3Kβ (Homo sapiens, UniProt P42338); assay: ELISA assay for PI3Kβ: in-cell ELISA, phosphorylation of AKT (Ser473) in PC-3 cells; format: cell-based; details: for IC50: cellular, pAKT (Ser473), PC-3 cells, LPA stimulation, read-out: IC50 p110β; for α/β ratio: ratio of cellular IC50 values, Table 2
T1 construct: endogenous in cells; host or cells: PC-3 (ATCC #CRL-1435)
T1 sequence (P42338 whole entry): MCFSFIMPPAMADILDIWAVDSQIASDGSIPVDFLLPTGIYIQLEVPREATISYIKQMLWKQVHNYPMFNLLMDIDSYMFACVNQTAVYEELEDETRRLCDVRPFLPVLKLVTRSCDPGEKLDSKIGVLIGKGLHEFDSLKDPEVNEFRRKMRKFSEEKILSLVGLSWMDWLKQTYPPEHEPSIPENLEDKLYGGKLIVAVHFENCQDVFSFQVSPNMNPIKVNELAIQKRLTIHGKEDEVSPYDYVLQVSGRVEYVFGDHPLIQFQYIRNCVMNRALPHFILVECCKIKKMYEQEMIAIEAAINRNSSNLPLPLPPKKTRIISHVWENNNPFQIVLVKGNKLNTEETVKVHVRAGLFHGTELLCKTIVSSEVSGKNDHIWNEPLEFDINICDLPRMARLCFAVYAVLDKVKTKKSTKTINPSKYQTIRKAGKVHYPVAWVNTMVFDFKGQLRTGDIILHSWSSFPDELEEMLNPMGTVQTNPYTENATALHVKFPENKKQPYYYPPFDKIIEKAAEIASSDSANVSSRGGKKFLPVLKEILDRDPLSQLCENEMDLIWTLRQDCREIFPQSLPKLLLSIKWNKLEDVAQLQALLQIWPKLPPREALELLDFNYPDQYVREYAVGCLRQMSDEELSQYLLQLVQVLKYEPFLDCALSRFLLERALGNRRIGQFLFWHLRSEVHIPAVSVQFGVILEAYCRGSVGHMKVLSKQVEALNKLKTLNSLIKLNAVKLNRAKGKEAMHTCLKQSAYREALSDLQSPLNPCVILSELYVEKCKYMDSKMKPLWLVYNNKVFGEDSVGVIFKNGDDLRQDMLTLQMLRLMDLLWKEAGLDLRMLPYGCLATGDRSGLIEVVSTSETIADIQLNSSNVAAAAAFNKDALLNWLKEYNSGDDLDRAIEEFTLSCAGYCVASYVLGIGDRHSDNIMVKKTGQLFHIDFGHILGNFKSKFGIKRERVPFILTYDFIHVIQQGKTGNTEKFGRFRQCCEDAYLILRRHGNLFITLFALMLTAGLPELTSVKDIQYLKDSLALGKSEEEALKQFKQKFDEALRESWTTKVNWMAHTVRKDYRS
T1 sequence (P27986 whole entry partner): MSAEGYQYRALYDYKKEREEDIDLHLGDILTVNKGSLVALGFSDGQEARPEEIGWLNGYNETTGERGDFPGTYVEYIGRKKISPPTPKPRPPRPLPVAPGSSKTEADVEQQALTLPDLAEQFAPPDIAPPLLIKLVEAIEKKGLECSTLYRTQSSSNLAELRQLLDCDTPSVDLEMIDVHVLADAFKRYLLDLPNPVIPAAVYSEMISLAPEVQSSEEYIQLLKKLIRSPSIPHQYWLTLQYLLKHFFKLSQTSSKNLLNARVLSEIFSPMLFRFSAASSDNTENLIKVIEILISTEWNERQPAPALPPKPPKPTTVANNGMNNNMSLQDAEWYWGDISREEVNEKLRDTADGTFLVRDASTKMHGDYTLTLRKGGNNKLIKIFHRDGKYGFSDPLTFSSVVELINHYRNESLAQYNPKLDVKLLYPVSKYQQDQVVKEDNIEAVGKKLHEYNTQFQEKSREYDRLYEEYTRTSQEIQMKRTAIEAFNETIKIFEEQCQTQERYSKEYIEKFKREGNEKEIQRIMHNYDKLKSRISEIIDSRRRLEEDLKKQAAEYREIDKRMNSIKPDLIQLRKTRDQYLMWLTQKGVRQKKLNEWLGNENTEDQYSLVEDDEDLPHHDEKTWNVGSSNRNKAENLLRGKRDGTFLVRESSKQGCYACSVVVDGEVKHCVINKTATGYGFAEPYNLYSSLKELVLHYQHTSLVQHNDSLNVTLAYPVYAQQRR
Experimental: Cellular PI3Kβ activity was determined by measuring the phosphorylation of AKT (Ser473) using an in-cell ELISA assay. PC-3 (prostate carcinoma) cells were obtained from ATCC (ATCC #CRL-1435). Growth medium was DMEM (CellGro #CV-10-013-CV) supplemented with 10% fetal bovine serum, 100 IU/mL penicillin, 100 μg/mL streptomycin, and 1×MEM non-essential amino acids. Phosphate buffered saline (PBS) contained 2.7 M NaCl, 54 mM KCl, 86 mM […] (dibasic, anhydrous), 28 mM […] (monobasic, anhydrous), pH 7.2, 10× stimulation mixture contained 50 μM LPA (Cayman #62215) diluted in serum-free DMEM medium (CellGro #CV-10-013-CV). Compounds for testing were dissolved and serially diluted in 100% DMSO (total of 10 concentrations), then diluted in serum-free DMEM to 2× final assay concentration. 2× fixative solution contained 8% formaldehyde (Amresco #M134) diluted in PBS. Permeabilization solution contained PBS supplemented with 0.1% Triton X-100. Blocking buffer was obtained from LiCor (LiCor #927-40000). Wash buffer contained PBS supplemented with 0.1% Tween-20. Primary antibody solution was rabbit anti-pAKT^S473 monoclonal antibody (Cell Signaling #4060) and mouse anti-total S6 (Santa Cruz #74459) diluted 1:500 and 1:2000, respectively, in blocking buffer. Secondary antibody solution was IRDye 800CW-conjugated goat anti-rabbit IgG (LiCor #926-32211) and IRDye 680LT-conjugated goat anti-mouse IgG (LiCor #926-68020) diluted 1:2000 and 1:1000, respectively, in blocking buffer.
PC-3 cells were subcultured in growth medium and seeded into flat, clear bottom, 96-well plates (Corning #3904) at 16000 cells/well, then incubated overnight in a 37° C., 5% CO2 incubator. Growth medium in plates was replaced with 100 μL/well serum-free DMEM and incubated overnight in a 37° C., 5% CO2 incubator. 50 μL/well of fresh serum-free DMEM was added to plates. Compound treatment was performed by adding 50 μL/well of 2× compound mixture to plates and incubating for 2 hrs at 37° C., 5% CO2, after which 11 μL/well of 10× stimulation mixture was added and plates were incubated for 10 min at 37° C., 5% CO2. Fixation was performed by adding 110 μL/well of 2× fixative solution to plates and incubating for 20 min at room temperature. Permeabilization was performed by replacing fixation solution with 150 μL/well permeabilization solution and incubating for 10 min at room temperature. Permeabilization was repeated (for a total of 2 times). Permeabilization solution was replaced with 100 μL/well blocking buffer and plates were incubated for 1 hr at room temperature, after which 100 μL/well of primary antibody solution was added and plates were incubated overnight at 4° C. Plates were washed with wash buffer, after which 100 μL/well of secondary antibody solution was added to the plates and incubated in the dark for 1 hr at room temperature. Plates were washed with wash buffer, followed by awash with PBS. After completely removing PBS, plates were scanned on the Licor Odyssey Imager. Images quantified using Licor Odyssey application software. IC50 values were determined by curve fitting using a Collaborative Drug Discovery database (www.collaborativedrug.com).

[2] = biological target: T2, PI3K alpha (Homo sapiens, UniProt P42336); assay: Luciferase-based luminescence assay (KinaseGlo), PI3K alpha enzymatic activity; format: biochemical; details: inhibition of enzymatic activity, 25 μM ATP, read-out: IC50 p110α
T2 construct: purchased Invitrogen Corp., Carlsbad, CA, USA
T2 sequence (P42336 whole entry, species assumed): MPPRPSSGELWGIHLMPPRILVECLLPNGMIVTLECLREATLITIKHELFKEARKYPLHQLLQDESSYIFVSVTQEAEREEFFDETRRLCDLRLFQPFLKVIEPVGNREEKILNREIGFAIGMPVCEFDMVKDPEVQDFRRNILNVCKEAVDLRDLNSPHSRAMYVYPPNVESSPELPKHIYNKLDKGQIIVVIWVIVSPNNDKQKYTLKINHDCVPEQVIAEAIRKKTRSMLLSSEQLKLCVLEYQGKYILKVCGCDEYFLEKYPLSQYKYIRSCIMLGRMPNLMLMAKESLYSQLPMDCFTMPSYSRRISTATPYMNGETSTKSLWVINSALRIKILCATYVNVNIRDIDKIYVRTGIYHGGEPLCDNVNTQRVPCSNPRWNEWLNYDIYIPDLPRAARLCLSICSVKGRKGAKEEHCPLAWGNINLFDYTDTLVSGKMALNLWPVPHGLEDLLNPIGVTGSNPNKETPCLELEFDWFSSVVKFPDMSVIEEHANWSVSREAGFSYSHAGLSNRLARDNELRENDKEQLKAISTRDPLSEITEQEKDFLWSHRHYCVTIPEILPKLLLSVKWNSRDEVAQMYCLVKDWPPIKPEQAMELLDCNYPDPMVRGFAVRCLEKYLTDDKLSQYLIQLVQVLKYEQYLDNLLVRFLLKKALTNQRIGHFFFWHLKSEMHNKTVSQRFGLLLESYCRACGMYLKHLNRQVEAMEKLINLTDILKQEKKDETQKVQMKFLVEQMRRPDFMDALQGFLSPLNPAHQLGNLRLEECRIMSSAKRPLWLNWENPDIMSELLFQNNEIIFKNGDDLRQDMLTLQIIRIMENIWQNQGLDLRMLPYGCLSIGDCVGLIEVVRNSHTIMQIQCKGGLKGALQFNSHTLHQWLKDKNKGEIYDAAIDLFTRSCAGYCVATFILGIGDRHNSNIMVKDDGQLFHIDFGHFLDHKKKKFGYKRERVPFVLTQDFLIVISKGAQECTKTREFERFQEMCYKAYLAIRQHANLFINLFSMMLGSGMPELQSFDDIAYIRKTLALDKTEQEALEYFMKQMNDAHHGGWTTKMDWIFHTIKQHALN
T2 sequence (P27986 whole entry partner, species assumed): as the sequence (P27986 whole entry partner) above
In short: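 KinaseGlo luminescence measured ATP remaining after PIP2 (50 μM) phosphorylation with 25 μM ATP in HEPES pH 7.5 buffer with CHAPS and DTT. Final enzyme was 1.65 nM alpha (1 h reaction) or 6.86 nM delta (2 h reaction). IC50 was curve-fitted from 10 concentrations.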

Row | Compound | IC50 [1] | IC50 [2] | α/β ratio [1]
1 | CC(C)(Cc1cccc2ccccc12)Nc1nc(N2CCOCC2)nc(-n2c(C(F)F)nc3ccccc32)n1 [Compound A27, 4-(2-(difluoromethyl)-1H-benzo[d]imidazol-1-yl)-N-(2-methyl-1-(naphthalen-1-yl)propan-2-yl)-6-morpholino-1,3,5-triazin-2-amine] | ≤ 100 nM | > 500 nM | –
2 | CC(C)(Cc1ccccc1-c1cccnc1)Nc1nc(N2CCOCC2)nc(-n2c(C(F)F)nc3ccccc32)n1 [Compound A40, 4-(2-(difluoromethyl)-1H-benzo[d]imidazol-1-yl)-N-(2-methyl-1-(2-(pyridin-3-yl)phenyl)propan-2-yl)-6-morpholino-1,3,5-triazin-2-amine] | ≤ 100 nM | 200 to 500 nM | A’
3 | Cc1cc(-c2ccccc2CC(C)(C)Nc2nc(N3CCOCC3)nc(-n3c(C(F)F)nc4ccccc43)n2)ccn1 [Compound A43, 4-(2-(difluoromethyl)-1H-benzo[d]imidazol-1-yl)-N-(2-methyl-1-(2-(2-methylpyridin-4-yl)phenyl)propan-2-yl)-6-morpholino-1,3,5-triazin-2-amine] | ≤ 100 nM | 200 to 500 nM | C’
4 | COc1ccc(-c2ccccc2CC(C)(C)Nc2nc(N3CCOCC3)nc(-n3c(C(F)F)nc4ccccc43)n2)cc1 [Compound A67, 4-(2-(difluoromethyl)-1H-benzo[d]imidazol-1-yl)-N-(1-(4′-methoxybiphenyl-2-yl)-2-methylpropan-2-yl)-6-morpholino-1,3,5-triazin-2-amine] | 200 to 500 nM | > 500 nM | A’
5 | COc1cc(-c2ccccc2CC(C)(C)Nc2nc(N3CCOCC3)nc(-n3c(C(F)F)nc4ccccc43)n2)ccn1 [Compound A41, 4-(2-(difluoromethyl)-1H-benzo[d]imidazol-1-yl)-N-(1-(2-(2-methoxypyridin-4-yl)phenyl)-2-methylpropan-2-yl)-6-morpholino-1,3,5-triazin-2-amine] | 100 to 200 nM | > 500 nM | B’
6 | COc1cccc(-c2ccccc2CC(C)(C)Nc2nc(N3CCOCC3)nc(-n3c(C(F)F)nc4ccccc43)n2)c1 [Compound A66, 4-(2-(difluoromethyl)-1H-benzo[d]imidazol-1-yl)-N-(1-(3′-methoxybiphenyl-2-yl)-2-methylpropan-2-yl)-6-morpholino-1,3,5-triazin-2-amine] | 100 to 200 nM | > 500 nM | A’
7 | CC(C)(Cc1ccccc1-c1ccncc1)Nc1nc(N2CCOCC2)nc(-n2c(C(F)F)nc3ccccc32)n1 [Compound A33, 4-(2-(difluoromethyl)-1H-benzo[d]imidazol-1-yl)-N-(2-methyl-1-(2-(pyridin-4-yl)phenyl)propan-2-yl)-6-morpholino-1,3,5-triazin-2-amine] | ≤ 100 nM | 200 to 500 nM | –
8 | CC(C)(Cc1ccccc1-c1cccnc1F)Nc1nc(N2CCOCC2)nc(-n2c(C(F)F)nc3ccccc32)n1 [Compound A62] | ≤ 100 nM | > 500 nM | A’

Results, then the molecule that gave them:

Row | IC50 [1] | IC50 [2] | α/β ratio [1] | Compound
9 | ≤ 100 nM | 100 to 200 nM | A’ | CC(=O)N1CCC(c2ccccc2CC(C)(C)Nc2nc(N3CCOCC3)nc(-n3c(C(F)F)nc4ccccc43)n2)CC1 [Compound A72, 4-(2-(difluoromethyl)-1H-benzo[d]imidazol-1-yl)-N-(2-methyl-1-(2-(1-acetylpiperidin-4-yl)phenyl)propan-2-yl)-6-morpholino-1,3,5-triazin-2-amine]
10 | ≤ 100 nM | 200 to 500 nM | A’ | CC(C)(Cc1ccccc1C1CCN(S(C)(=O)=O)CC1)Nc1nc(N2CCOCC2)nc(-n2c(C(F)F)nc3ccccc32)n1 [Compound A73, 4-(2-(difluoromethyl)-1H-benzo[d]imidazol-1-yl)-N-(2-methyl-1-(2-(1-(methylsulfonyl)piperidin-4-yl)phenyl)propan-2-yl)-6-morpholino-1,3,5-triazin-2-amine]
11 | ≤ 100 nM | > 500 nM | A’ | CC(C)(Cc1cccc(F)c1)Nc1nc(N2CCOCC2)nc(-n2c(C(F)F)nc3ccccc32)n1 [Compound A39, 4-(2-(difluoromethyl)-1H-benzo[d]imidazol-1-yl)-N-(1-(3-fluorophenyl)-2-methylpropan-2-yl)-6-morpholino-1,3,5-triazin-2-amine]
12 | ≤ 100 nM | 200 to 500 nM | A’ | Cn1nccc1-c1ccccc1CC(C)(C)Nc1nc(N2CCOCC2)nc(-n2c(C(F)F)nc3ccccc32)n1 [Compound A46, 4-(2-(difluoromethyl)-1H-benzo[d]imidazol-1-yl)-N-(2-methyl-1-(2-(1-methyl-1H-pyrazol-5-yl)phenyl)propan-2-yl)-6-morpholino-1,3,5-triazin-2-amine]
13 | ≤ 100 nM | 200 to 500 nM | A’ | CC(C)(Cc1ccccc1-c1cncnc1)Nc1nc(N2CCOCC2)nc(-n2c(C(F)F)nc3ccccc32)n1 [Compound A63, 4-(2-(difluoromethyl)-1H-benzo[d]imidazol-1-yl)-N-(2-methyl-1-(2-(pyrimidin-5-yl)phenyl)propan-2-yl)-6-morpholino-1,3,5-triazin-2-amine]
14 | ≤ 100 nM | 200 to 500 nM | A’ | CC(C)(Cc1ccccc1-c1cn[nH]c1)Nc1nc(N2CCOCC2)nc(-n2c(C(F)F)nc3ccccc32)n1 [Compound A44, 4-(2-(difluoromethyl)-1H-benzo[d]imidazol-1-yl)-N-(1-(2-(1H-pyrazol-4-yl)phenyl)-2-methylpropan-2-yl)-6-morpholino-1,3,5-triazin-2-amine]
15 | ≤ 100 nM | > 500 nM | A’ | CN1CCN(c2cc(-c3ccccc3CC(C)(C)Nc3nc(N4CCOCC4)nc(-n4c(C(F)F)nc5ccccc54)n3)ccn2)CC1 [Compound A64, 4-(2-(difluoromethyl)-1H-benzo[d]imidazol-1-yl)-N-(2-methyl-1-(2-(2-(4-methylpiperazin-1-yl)pyridin-4-yl)phenyl)propan-2-yl)-6-morpholino-1,3,5-triazin-2-amine]
16 | ≤ 100 nM | > 500 nM | B’ | COc1cc(CC(C)(C)Nc2nc(N3CCOCC3)nc(-n3c(C(F)F)nc4ccccc43)n2)ccc1F [Compound A50, 4-(2-(difluoromethyl)-1H-benzo[d]imidazol-1-yl)-N-(1-(4-fluoro-3-methoxyphenyl)-2-methylpropan-2-yl)-6-morpholino-1,3,5-triazin-2-amine]
17 | ≤ 100 nM | > 500 nM | B’ | CC(C)(Cc1ccccc1Cl)Nc1nc(N2CCOCC2)nc(-n2c(C(F)F)nc3ccccc32)n1 [Compound A16, 4-(2-(difluoromethyl)-1H-benzo[d]imidazol-1-yl)-N-(1-(2-chlorophenyl)-2-methylpropan-2-yl)-6-morpholino-1,3,5-triazin-2-amine]
18 | ≤ 100 nM | > 500 nM | A’ | CC(C)(Cc1ccccc1C1CCNC1)Nc1nc(N2CCOCC2)nc(-n2c(C(F)F)nc3ccccc32)n1 (stereo not shown) [Compound A74, 4-(2-(difluoromethyl)-1H-benzo[d]imidazol-1-yl)-N-(2-methyl-1-(2-(pyrrolidin-3-yl)phenyl)propan-2-yl)-6-morpholino-1,3,5-triazin-2-amine]
19 | ≤ 100 nM | > 500 nM | C’ | CC(C)(Cc1ccccc1F)Nc1nc(N2CCOCC2)nc(-n2c(C(F)F)nc3ccccc32)n1 [Compound A15, 4-(2-(difluoromethyl)-1H-benzo[d]imidazol-1-yl)-N-(1-(2-fluorophenyl)-2-methylpropan-2-yl)-6-morpholino-1,3,5-triazin-2-amine]
